Values after ≈ are worked out from the molar mass of the structure shown.

Common to all, as to experiment: MIC in agar plate culture-dilution assay
Common to all, as to type: cell-based

Assay [1] concerns Bacillus subtilis ATCC 6633. Conditions: ATCC6633; Bacillus subtilis ATCC 6633; agar plate culture-dilution; read-out: MIC. The text has this:
(§1) The compounds of the formula (I) and salts thereof of the present invention are new, and have high and broad antibacterial activity capable of inhibiting the growth of pathogenic microorganisms of a broad range including gram-positive and gram-negative bacteria. In order to show the usability of the compounds of the formula (I), the antibacterial activity of some typical compounds of the formula (I) was actually measured, and the results are given in the following Table-1.
(§2) MIC in agar plate culture-dilution assay (Y/ml)

Assay [2] relates to Pseudomonas aeruginosa IAM-1007. The settings on record: IAM1007; Pseudomonas aeruginosa IAM-1007; agar plate culture-dilution; read-out: MIC.
Source text: as §1, §2

The test system of assay [3] is Serratia marcescens No. 1. Conditions: Serratia marcescens No. 1; agar plate culture-dilution; read-out: MIC.
Source text: as §1, §2

Assay [4] concerns Citrobacter freundii GN-346. Conditions: GN346; Citrobacter freundii GN-346; agar plate culture-dilution; read-out: MIC.
Source text: as §1, §2

Assay [5] relates to Escherichia coli NIHJ JC-2. The settings on record: NIHJJC2.
Source text: as §1, §2

Assay [6] relates to Pseudomonas aeruginosa E-2. Conditions: E2; Pseudomonas aeruginosa E-2; agar plate culture-dilution; read-out: MIC.
Source text: as §1, §2

Assay [7] deals with Klebsiella pneumoniae GN-69. Conditions: GN69; Klebsiella pneumoniae GN-69; agar plate culture-dilution; read-out: MIC.
Source text: as §1, §2

In assay [8] the test system is Staphylococcus aureus 209P JC-1. The settings on record: Staphylococcus aureus 209P JC-1; agar plate culture-dilution; read-out: MIC.
Source text: as §1, §2

Assay [9] concerns Proteus vulgaris GN-76. The settings on record: GN76; Proteus vulgaris GN-76; agar plate culture-dilution; read-out: MIC.
Source text: as §1, §2

For assay [10], the system named is Enterobacter cloacae GN-7471. Conditions: GN7471; Enterobacter cloacae GN-7471; agar plate culture-dilution; read-out: MIC.
Source text: as §1, §2

Assay [11] relates to Pseudomonas maltophilia M-0627. Conditions: Stenotrophomonas maltophilia, M0627; Pseudomonas maltophilia M-0627; agar plate culture-dilution; read-out: MIC.
Source text: as §1, §2

The test system of assay [12] is Pseudomonas aeruginosa M-0148. The settings on record: M0148; Pseudomonas aeruginosa M-0148; agar plate culture-dilution; read-out: MIC.
Source text: as §1, §2

Assay [13] deals with Staphylococcus aureus Smith (1). Conditions: Staphylococcus aureus Smith (1); agar plate culture-dilution; read-out: MIC.
Source text: as §1, §2

The test system of assay [14] is Proteus rettgeri GN-624. The settings on record: Providencia rettgeri, GN624; Proteus rettgeri GN-624; agar plate culture-dilution; read-out: MIC.
Source text: as §1, §2

The term MIC denotes the lowest concentration that inhibits growth of the organism. `Nc1nc(C(NC(=O)c2cc(=O)c(O)cn2O)C(=O)N[C@@H]2C(=O)N3C(C(=O)[O-])=C(CSc4cc[n+](CC(=O)O)c5c4CCC5)CS[C@H]23)cs1` (stereo partly drawn) [Example 17, (6R,7R)7-[(RS)2-(2-Aminothiazol-4-yl)-2-(1,5-dihydroxy-4-pyridone-2-carboxamido)acetamido]-3-(2,3-cyclopenteno-1-carboxylmethylpyridinium-4-yl)-thiomethyl-ceph-3-em-4-carboxylate]: the MIC in assay [1] is 3.13 µg/mL (≈ 4.29 µM); in assay [2], 0.05 µg/mL (≈ 0.0685 µM); in assay [3], 0.2 µg/mL (≈ 0.274 µM); in [4], 0.78 µg/mL (≈ 1.07 µM); in assay [5], less than 0.025 µg/mL; in [6], 0.1 µg/mL (≈ 0.137 µM). The MIC in [7] turned out to be 0.1 µg/mL (≈ 0.137 µM); in assay [8], 3.13 µg/mL (≈ 4.29 µM); in assay [9], 0.2 µg/mL (≈ 0.274 µM); in assay [10] it was 0.78 µg/mL (≈ 1.07 µM); in [11], 6.25 µg/mL (≈ 8.56 µM); in assay [12] it was 1.56 µg/mL (≈ 2.14 µM). Also, the figures for the MIC in [13] and in assay [14] were 3.13 µg/mL (≈ 4.29 µM) and 0.1 µg/mL (≈ 0.137 µM), respectively.
For the compound `Nc1nc(C(NC(=O)c2cc(=O)c(O)cn2O)C(=O)N[C@@H]2C(=O)N3C(C(=O)O)=C(CSc4ccncc4)CS[C@H]23)cs1` (stereo partly drawn) [Example 16, (6R,7R)7-[(RS)2-(2-Aminothiazol-4-yl)-2-(1,5-dihydroxy-4-pyridone-2-carboxamido)acetamido]-3-(pyridine-4-yl)thiomethyl-ceph-3-em-4-carboxylic acid], the MIC was 6.25 µg/mL (≈ 9.89 µM) in [1]; less than 0.025 µg/mL in assay [2]; 0.39 µg/mL (≈ 0.617 µM) in assay [3]; 0.78 µg/mL (≈ 1.23 µM) in assay [4]; 0.1 µg/mL (≈ 0.158 µM) in assay [5]; 0.1 µg/mL (≈ 0.158 µM) in [6]. In addition, the MIC in [7] was 0.2 µg/mL (≈ 0.317 µM); in assay [8], 3.13 µg/mL (≈ 4.96 µM); in assay [9], 0.39 µg/mL (≈ 0.617 µM); in assay [10], 1.56 µg/mL (≈ 2.47 µM); in assay [11], 6.25 µg/mL (≈ 9.89 µM); in [12] it was 3.13 µg/mL (≈ 4.96 µM). For the same compound, the values for the MIC in [13] and in [14] were 3.13 µg/mL (≈ 4.96 µM) and 1.56 µg/mL (≈ 2.47 µM), respectively.
For `C[n+]1ccc(SCC2=C(C(=O)[O-])N3C(=O)[C@@H](NC(=O)C(NC(=O)c4cc(=O)c(O)c[nH]4)c4csc(N)n4)[C@H]3SC2)cc1` (some centres unmarked) [A, reference compound], the MIC was 1.56 µg/mL (≈ 2.48 µM) in assay [1]; 6.25 µg/mL (≈ 9.93 µM) in [2]; 0.2 µg/mL (≈ 0.318 µM) in assay [3]; 0.39 µg/mL (≈ 0.619 µM) in assay [4]; 0.1 µg/mL (≈ 0.159 µM) in [5]; 0.2 µg/mL (≈ 0.318 µM) in assay [6]. Also, the MIC in assay [7] amounted to 0.2 µg/mL (≈ 0.318 µM); in [8], 0.78 µg/mL (≈ 1.24 µM); in assay [9], 0.78 µg/mL (≈ 1.24 µM); in assay [10], 3.13 µg/mL (≈ 4.97 µM); in assay [11], 50 µg/mL (≈ 79.4 µM); in [12], 50 µg/mL (≈ 79.4 µM). For the same compound, the MIC in assay [13] was determined as 0.78 µg/mL (≈ 1.24 µM); in assay [14] it was 1.56 µg/mL (≈ 2.48 µM).
Regarding `Nc1nc(C(NC(=O)c2cc(=O)c(O)cn2O)C(=O)N[C@@H]2C(=O)N3C(C(=O)O)=C(CSc4cnns4)CS[C@H]23)cs1` (stereo partly drawn) [Example 25, (6R,7R)7-[(RS)2-(2-Aminothiazol-4-yl)-2-(1,5-dihydroxy-4-pyridone-2-carboxamido)acetamido]-3-(1,2,3-thiadiazol-5-yl)thiomethyl-ceph-3-em-4-carboxylic acid], the MIC in assay [1] was 3.13 µg/mL (≈ 4.9 µM); in assay [2] it was 0.1 µg/mL (≈ 0.157 µM); in [3] it was 0.2 µg/mL (≈ 0.313 µM); in assay [4], 0.78 µg/mL (≈ 1.22 µM); in [5] it was 0.05 µg/mL (≈ 0.0783 µM); in assay [6], 0.05 µg/mL (≈ 0.0783 µM). Also, the MIC in assay [7] was 0.05 µg/mL (≈ 0.0783 µM); in assay [8] it was 3.13 µg/mL (≈ 4.9 µM); in [9] it was 0.1 µg/mL (≈ 0.157 µM); in assay [10], 6.25 µg/mL (≈ 9.79 µM); in assay [11] it was 1.56 µg/mL (≈ 2.44 µM); in assay [12], 0.2 µg/mL (≈ 0.313 µM). Moreover, the MIC in assay [13] was 6.25 µg/mL (≈ 9.79 µM); in [14], 3.13 µg/mL (≈ 4.9 µM).
